Laboratory results taken from the supplement of paper PMC10307832.

What was measured:
Experiment in all cases: relative viability (nuclei count vs DMSO), 5 days (fraction); higher = more cells survive
NCI-H2342 = test system: NCI-H2342
Outline: (§1)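 Each reported value is a median over duplicate plates. It expresses relative viability: treated-well nuclei count divided by vehicle-well nuclei count. Lung cancer cell lines in 1536-well plates were dosed by pin tool a day after seeding, alone with one drug or with a fixed anchor-drug dose plus five library-drug doses (not always all listed) in √10 steps, and nuclei were counted after 5 days.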

NCI-H1395 = test system: NCI-H1395
Outline: as §1

HARA = test system: HARA
Outline: as §1

NCI-H1437 = test system: NCI-H1437
Outline: as §1

NCI-H2009 = test system: NCI-H2009
Outline: as §1

LOU-NH91 = test system: LOU-NH91
Outline: as §1

SK-LU-1 = test system: SK-LU-1
Outline: as §1

NCI-H2170 = test system: NCI-H2170
Outline: as §1

BEN = test system: BEN
Outline: as §1

HCC-827 = test system: HCC-827
Outline: as §1

NCI-H661 = test system: NCI-H661
Outline: as §1

NCI-H1355 = test system: NCI-H1355
Outline: as §1

NCI-H2405 = test system: NCI-H2405
Outline: as §1

NCI-H1734 = test system: NCI-H1734
Outline: as §1

NCI-H2087 = test system: NCI-H2087
Outline: as §1

LC-2-ad = test system: LC-2-ad
Outline: as §1

NCI-H596 = test system: NCI-H596
Outline: as §1

SK-MES-1 = test system: SK-MES-1
Outline: as §1

NCI-H2228 = test system: NCI-H2228
Outline: as §1

EKVX = test system: EKVX
Outline: as §1

NCI-H647 = test system: NCI-H647
Outline: as §1

NCI-H1792 = test system: NCI-H1792
Outline: as §1

C=C1C(=O)O[C@@H](CCCCCCCC)[C@@H]1C(=O)O [C-75] + CCNC(=O)c1noc(-c2cc(C(C)C)c(O)cc2O)c1-c1ccc(CN2CCOCC2)cc1 [Luminespib] (partner 0.01 µM)
relative viability (NCI-H2342; first compound 0.08 µM): 0.798 | relative viability (NCI-H2342; first compound 0.253 µM): 0.802 | relative viability (NCI-H2342; first compound 0.8 µM): 0.689 | relative viability (NCI-H2342; first compound 2.53 µM): 0.743 | relative viability (NCI-H2342; first compound 8 µM): 0.68 | relative viability (NCI-H1395; first compound 0.08 µM): 0.613 | relative viability (NCI-H1395; first compound 0.253 µM): 0.574 | relative viability (NCI-H1395; first compound 0.8 µM): 0.713 | relative viability (NCI-H1395; first compound 2.53 µM): 0.755 | relative viability (NCI-H1395; first compound 8 µM): 0.686 | relative viability (HARA; first compound 0.08 µM): 0.684 | relative viability (HARA; first compound 0.253 µM): 0.684 | relative viability (HARA; first compound 0.8 µM): 0.683 | relative viability (HARA; first compound 2.53 µM): 0.712 | relative viability (HARA; first compound 8 µM): 0.612 | relative viability (NCI-H1437; first compound 0.08 µM): 1.15 | relative viability (NCI-H1437; first compound 0.253 µM): 1.27 | relative viability (NCI-H1437; first compound 0.8 µM): 1.11 | relative viability (NCI-H1437; first compound 2.53 µM): 1.13 | relative viability (NCI-H1437; first compound 8 µM): 1.12 | relative viability (NCI-H2009; first compound 0.08 µM): 1.02 | relative viability (NCI-H2009; first compound 0.253 µM): 1.05 | relative viability (NCI-H2009; first compound 0.8 µM): 1 | relative viability (NCI-H2009; first compound 2.53 µM): 0.999 | relative viability (NCI-H2009; first compound 8 µM): 0.793 | relative viability (LOU-NH91; first compound 0.08 µM): 0.307 | relative viability (LOU-NH91; first compound 0.253 µM): 0.346 | relative viability (LOU-NH91; first compound 0.8 µM): 0.344 | relative viability (LOU-NH91; first compound 2.53 µM): 0.29 | relative viability (LOU-NH91; first compound 8 µM): 0.32 | relative viability (SK-LU-1; first compound 0.08 µM): 0.202 | relative viability (SK-LU-1; first compound 0.253 µM): 0.191 | relative viability (SK-LU-1; first compound 0.8 µM): 0.184 | relative viability (SK-LU-1; first compound 2.53 µM): 0.193 | relative viability (SK-LU-1; first compound 8 µM): 0.161 | relative viability (NCI-H2170; first compound 0.08 µM): 0.551 | relative viability (NCI-H2170; first compound 0.253 µM): 0.599 | relative viability (NCI-H2170; first compound 0.8 µM): 0.785 | relative viability (NCI-H2170; first compound 2.53 µM): 0.407 | relative viability (NCI-H2170; first compound 8 µM): 0.669 | relative viability (BEN; first compound 0.08 µM): 0.351 | relative viability (BEN; first compound 0.253 µM): 0.302 | relative viability (BEN; first compound 0.8 µM): 0.302 | relative viability (BEN; first compound 8 µM): 0.181 | relative viability (HCC-827; first compound 0.08 µM): 0.519 | relative viability (HCC-827; first compound 0.253 µM): 0.703 | relative viability (HCC-827; first compound 0.8 µM): 0.825 | relative viability (HCC-827; first compound 2.53 µM): 0.42 | relative viability (HCC-827; first compound 8 µM): 0.566 | relative viability (NCI-H661; first compound 0.08 µM): 0.946 | relative viability (NCI-H661; first compound 0.253 µM): 0.905 | relative viability (NCI-H661; first compound 0.8 µM): 0.899 | relative viability (NCI-H661; first compound 2.53 µM): 0.869 | relative viability (NCI-H661; first compound 8 µM): 0.84 | relative viability (NCI-H1355; first compound 0.08 µM): 0.621 | relative viability (NCI-H1355; first compound 0.253 µM): 0.668 | relative viability (NCI-H1355; first compound 0.8 µM): 0.641 | relative viability (NCI-H1355; first compound 2.53 µM): 0.394 | relative viability (NCI-H1355; first compound 8 µM): 0.615 | relative viability (NCI-H2405; first compound 0.08 µM): 0.822 | relative viability (NCI-H2405; first compound 0.253 µM): 0.478 | relative viability (NCI-H2405; first compound 0.8 µM): 0.716 | relative viability (NCI-H2405; first compound 2.53 µM): 0.558 | relative viability (NCI-H2405; first compound 8 µM): 0.869 | relative viability (NCI-H1734; first compound 0.08 µM): 0.201 | relative viability (NCI-H1734; first compound 0.253 µM): 0.192 | relative viability (NCI-H1734; first compound 0.8 µM): 0.178 | relative viability (NCI-H1734; first compound 2.53 µM): 0.184 | relative viability (NCI-H1734; first compound 8 µM): 0.185 | relative viability (NCI-H2087; first compound 0.08 µM): 0.162 | relative viability (NCI-H2087; first compound 0.253 µM): 0.218 | relative viability (NCI-H2087; first compound 0.8 µM): 0.141 | relative viability (NCI-H2087; first compound 2.53 µM): 0.166 | relative viability (NCI-H2087; first compound 8 µM): 0.217 | relative viability (LC-2-ad; first compound 0.08 µM): 1.06 | relative viability (LC-2-ad; first compound 0.253 µM): 0.801 | relative viability (LC-2-ad; first compound 0.8 µM): 0.95 | relative viability (LC-2-ad; first compound 2.53 µM): 0.797 | relative viability (LC-2-ad; first compound 8 µM): 0.91 | relative viability (NCI-H596; first compound 0.08 µM): 0.854 | relative viability (NCI-H596; first compound 0.253 µM): 0.968 | relative viability (NCI-H596; first compound 0.8 µM): 0.937 | relative viability (NCI-H596; first compound 2.53 µM): 0.939 | relative viability (NCI-H596; first compound 8 µM): 0.957 | relative viability (SK-MES-1; first compound 0.08 µM): 0.756 | relative viability (SK-MES-1; first compound 0.253 µM): 0.73 | relative viability (SK-MES-1; first compound 0.8 µM): 0.685 | relative viability (SK-MES-1; first compound 2.53 µM): 0.652 | relative viability (SK-MES-1; first compound 8 µM): 0.552 | relative viability (NCI-H2228; first compound 0.08 µM): 0.135 | relative viability (NCI-H2228; first compound 0.253 µM): 0.161 | relative viability (NCI-H2228; first compound 0.8 µM): 0.116 | relative viability (NCI-H2228; first compound 2.53 µM): 0.181 | relative viability (NCI-H2228; first compound 8 µM): 0.283 | relative viability (EKVX; first compound 0.08 µM): 0.867 | relative viability (EKVX; first compound 0.253 µM): 0.984 | relative viability (EKVX; first compound 0.8 µM): 0.788 | relative viability (EKVX; first compound 8 µM): 0.891 | relative viability (NCI-H647; first compound 0.08 µM): 0.114 | relative viability (NCI-H647; first compound 0.253 µM): 0.256 | relative viability (NCI-H647; first compound 0.8 µM): 0.183 | relative viability (NCI-H647; first compound 2.53 µM): 0.117 | relative viability (NCI-H647; first compound 8 µM): 0.13 | relative viability (NCI-H1792; first compound 0.08 µM): 0.423 | relative viability (NCI-H1792; first compound 0.253 µM): 0.484 | relative viability (NCI-H1792; first compound 0.8 µM): 0.514 | relative viability (NCI-H1792; first compound 2.53 µM): 0.331 | relative viability (NCI-H1792; first compound 8 µM): 0.522
